# In US20070275100A1, “Use of gaseous nitric oxide as an anti-cancer agent” (priority 1998, published 2007):
# Where “and” joins values, the source holds several entries; their conditions need not be identical. Equal entries are not always repeated.
# Assays:
# [1] = test system: infected wound on the skin; experiment: Topical gNO applied to an infected wound on the skin; assay type: in vivo; conditions: 200 ppm gNO topically applied
# Description: For anti-inflammatory applications of high concentrations of gNO, it is hypothesized that the high dose of NO acts as a feedback loop to down regulate iNOS, and/or acts as a antioxidant on peroxynitrite and other reactive oxygen species and/or remove the stimulus such as bacterial load all leading to the amelioration of high levels of NO or its reactants resulting in damaging pathogenesis. This hypothesis is supported by testing results of the Applicant wherein 200 ppm gNO was topically applied to an infected wound on the skin. […] It is hypothesized that the body stopped producing the “bad” NO causing pathogenic inflammation.
# [2] = test system: bacteria that cause nosocomial pneumonia in the intensive care unit; conditions: continuous in vitro exposure to 200 ppm gNO; cited from earlier work
# [3] = test system: H460-epithelial metastatic; large cell lung cancer cells; experiment: MTS proliferation assay, H460 cells under continuous gNO exposure (Example 1); assay type: cell-based, human
# Description: (gNO) 200 ppm and 350 ppm compared to air (control) on the survival of a representative line of cancer cells. […] […] The plates then were removed and cell viability assessed by an MTS proliferation assay.
# (§1) When exposed to 350 ppm of gNO, however, cancer cell survival rates decrease dramatically.
# NCI-H460 = experiment: MTS cell proliferation assay, 25,000 ppm gNO (Example 4), NCI-H460; assay type: cell-based, human
# Description: (§2) The purpose of this example is to illustrate the tumorcidal activity of high-dosage gNO. We examined the cellular sensitivity to 25,000 ppm of gNO on 5 non-small cell lung cancer (NSCLC) cells lines by an MTS cell proliferation assay.
# (§3) Human lung cancer cell lines A549, NCI-H23, NCI-H460, HTB-58, H2170, and H441 (commercially available from American Type Culture Collection (“ATCC”), Manassas, Va.) were maintained in culture medium recommended by ATCC. All media were supplemented with 1% penicillin/streptomycin and 10% fetal bovine serum (commercially available from Invitrogen Gibco-BRL, Burlington, Ontario, Canada). […]
# (§4) After 24 hours, the A549, NCI-H23, NCI-H460, HTB-58, H2170 and H441 cells were treated with 25,000 ppm gNO or air (control) for 1 minute, 3 minutes, 6 minutes, 9 minutes, 10 minutes, 20 minutes, and 30 minutes. Immediately following treatment, the viability of the cells was determined using a colorimetric MTS (3-(4,5-dimethylthiazol-2-yl)-5-(3-carboxymethoxyphenyl)-2-(4-sulfophenyl)-2H-tetrazolium, inner salt) cell proliferation assay (commercially available as the CellTiter 960 Aqueous One Solution Cell Proliferation Assay (MTS) from Promega, Madison, Wis., USA) according to the manufacturer's protocol. […] Absorbance was measured at 490 nm for each well using a micro-plate reader (commercially available from Dynex Technologies, Chantilly, Va., USA). […]
# NCI-H23 = experiment: MTS cell proliferation assay, 25,000 ppm gNO (Example 4), NCI-H23; assay type: cell-based, human
# Description: as §2, §3, §4
# [4] = test system: extra cellular M. tuberculosis; experiment: Exposure of extracellular M. tuberculosis to NO; assay type: cell-based; conditions: exogenous NO
# Description: Further, it may be inferred that the large population of extracellular bacilli in patients with cavitary pulmonary tuberculosis are also vulnerable to exogenous (inhaled) NO.
# H441 = experiment: MTS cell proliferation assay, 25,000 ppm gNO (Example 4), H441; assay type: cell-based, human
# Description: as §2, §3, §4
# [5] = test system: A549-epithelial lung carcinoma cells; experiment: MTS proliferation assay, A549 cells under continuous gNO exposure (Example 1); assay type: cell-based, human; conditions: for Corrected Average: blank subtracted; for survivability: 24 hours continuous exposure, compared to air (control)
# Experimental: (gNO) 200 ppm and 350 ppm compared to air (control) on the survival of a representative line of cancer cells. Cancer cell lines (A549-epithelial lung carcinoma cells and H460-epithelial metastatic; large cell lung cancer cells) were prepared in F12 medium and suspended in six 96-well plates (3 treatment and 3 controls). […] The plates then were removed and cell viability assessed by an MTS proliferation assay.
# as §1
# [6] = 350 ppm NO, 2 hours, RPMI medium
# [7] = 350 ppm NO, 2 hours, RPMI medium, listed as NO
# [8] = 200 ppm NO, 1 hour, F12 medium, listed as NO
# [9] = 200 ppm NO, 1 hour, HBSS medium
# [10] = 200 ppm NO, 2.5 hours, F12 medium
# [11] = 200 ppm NO, 2.5 hours, F12 medium, listed as NO
# [12] = 200 ppm NO, 2.5 hours, HBSS medium
# [13] = 200 ppm NO, 3.5 hours, F12 medium
# [14] = 200 ppm NO, 3.5 hours, F12 medium, listed as NO
# [15] = 200 ppm NO, 3.5 hours, HBSS medium
# [16] = 350 ppm NO, 2 hours, F12 medium
# [17] = 350 ppm NO, 2 hours, F12 medium, listed as NO
smiles,measurement,setting,value
"[N]=O [gNO, nitric oxide]",bacterial load,[1],significantly reduced
same,inflammatory bodies (histological results),[1],significant reduction
same,serum NOX levels,[1]; compared to the infected control,lower
same,time to cytocidal effect,[2],≤ 5 h
same,Average,[3]; [6],0.158
same,Survival,[3]; [6],about 0%
same,Corrected Average,"[3]; 350 ppm NO, 2 hours, RPMI medium, blank subtracted",0.037
same,"MTS assay reading, individual wells",[3]; [7],0.193 and 0.147 and 0.152 and 0.154 (2×) and 0.156 and 0.172 and 0.157 and 0.149 (2×) and 0.165 and 0.155 and 0.158 and 0.145 and 0.184 and 0.143
same,Survival,[3]; [7],2%
same,survivability,"[3]; 350 ppm gNO, 24 hours continuous exposure, compared to air (control)",2%
same,IC50 (exposure time),NCI-H460,about 7 minutes
same,IC50 (exposure time),NCI-H23,about 6 minutes
same,viability at 25000 ppm,"NCI-H23; Homo sapiens, NCI-H23, 0.15 h, at 9 minutes",~24%
same,mycobacteriocidal action,[4],powerful dose-dependent and time-dependent mycobacteriocidal action
same,IC50 (exposure time),H441,about 7 minutes
same,viability at 25000 ppm,"H441; Homo sapiens, NCI-H441, 0.15 h, at 9 minutes",~17%
same,Average,"[5]; 200 ppm NO, 1 hour, F12 medium",0.852
same,Survival,"[5]; 200 ppm NO, 1 hour, F12 medium",up to 92%
same,Corrected Average,"[5]; 200 ppm NO, 1 hour, F12 medium",0.621
same,"MTS assay reading, individual wells",[5]; [8],0.842 and 0.955 and 0.793 and 0.818 and 0.828 and 0.78 and 0.805 and 0.936 and 0.959 and 0.91 and 0.827 and 0.8 and 0.795 and 0.759 and 0.945 and 0.886
same,Survival,[5]; [8],92%
same,Average,[5]; [9],0.06
same,"MTS assay reading, individual wells",[5]; [9],0.062 (2×) and 0.058 (2×) and 0.057 (2×) and 0.056 (2×) and 0.06 (3×) and 0.067 (2×) and 0.059 and 0.055
same,Survival,[5]; [9],0%
same,Corrected Average,[5]; [9],0
same,Average,[5]; [10],1.276
same,Survival,[5]; [10],up to 90%
same,Corrected Average,[5]; [10],0.918
same,"MTS assay reading, individual wells",[5]; [11],1.261 and 1.178 and 1.33 and 1.422 and 1.454 and 1.458 and 1.354 and 1.105 and 1.348 and 1.082 and 1.329 and 1.237 and 1.272 and 0.995 and 1.284 and 1.299
same,Survival,[5]; [11],90%
same,Average,[5]; [12],0.06
same,"MTS assay reading, individual wells",[5]; [12],0.063 and 0.059 (3×) and 0.058 (2×) and 0.061 and 0.06 (2×) and 0.069 (2×) and 0.057 (2×) and 0.056 and 0.062
same,Survival,[5]; [12],0%
same,Corrected Average,[5]; [12],0
same,Average,[5]; [13],1.529
same,Survival,[5]; [13],up to 87%
same,Corrected Average,[5]; [13],1.059
same,"MTS assay reading, individual wells",[5]; [14],1.587 and 1.525 and 1.665 and 1.444 and 1.642 and 1.332 and 1.639 and 1.551 and 1.567 and 1.863 and 1.335 and 1.325 and 1.575 and 1.227 and 1.561 and 1.625
same,Survival,[5]; [14],87%
same,Average,[5]; [15],0.061
same,"MTS assay reading, individual wells",[5]; [15],0.063 (2×) and 0.059 (3×) and 0.058 (3×) and 0.061 (2×) and 0.06 and 0.069 and 0.057 and 0.056 and 0.07
same,Survival,[5]; [15],0%
same,Corrected Average,[5]; [15],0
same,survivability,[5]; 200 ppm gNO,greater than 90%
same,Average,[5]; [16],0.110
same,Survival,[5]; [16],about 2%
same,Corrected Average,[5]; [16],0.009
same,"MTS assay reading, individual wells",[5]; [17],0.104 and 0.115 and 0.106 (2×) and 0.110 and 0.116 and 0.119
same,Survival,[5]; [17],1%
same,survivability,[5]; 350 ppm gNO,1%
